Key:
[1] = biological target: T1, Neuronal acetylcholine receptor; alpha4/beta2 (Rattus norvegicus, UniProt P09483+P12390); assay: Displacement of [3H]epibatidine from alpha4beta2 nAChR in rat frontal cortex membrane by scintillation counting method; type: cell membranes
[2] = Half life in human; type: ADME
[3] = Induction of contextual fear extinction in fear-conditioned C57/BlJ6 mouse assessed as decrease in initial freezing behavior at 5 mg/kg administered for 1 week by contextual fear conditioning assay; type: functional; set-up: scale not given: the % may be the effect or the level left; conditions: time 1 weeks
[4] = biological target: Protein kinase C alpha type (Homo sapiens) (UniProt P17252); assay: Inhibition of human protein kinase Ca at 10 uM relative to control
[5] = organism: Homo sapiens; assay: Inhibition of human PDE3A1A at 10 uM relative to control
[6] = biological target: cGMP-specific 3',5'-cyclic phosphodiesterase (Homo sapiens) (UniProt O76074); assay: Inhibition of human PDE5A1 at 10 uM relative to control
[7] = biological target: Neuropeptide Y receptor type 2 (Homo sapiens) (UniProt P49146); assay: Inhibition of human NPY2R expressed in CHO-K1 cells at 10 uM relative to control; type: cell-based
[8] = biological target: Substance-P receptor (Homo sapiens) (UniProt P25103); assay: Inhibition of human NK1 at 10 uM relative to control
[9] = biological target: Endothelin-1 receptor (Homo sapiens) (UniProt P25101); assay: Inhibition of human ET-A at 10 uM relative to control
[10] = biological target: Thromboxane A2 receptor (Homo sapiens) (UniProt P21731); assay: Inhibition of human Thromboxane A2 at 10 uM relative to control
[11] = biological target: Cysteinyl leukotriene receptor 1 (Homo sapiens) (UniProt Q9Y271); assay: Inhibition of human CYSLTR1 expressed in CHO-K1 cells at 10 uM relative to control; type: cell-based
[12] = organism: Homo sapiens; assay: Inhibition of sodium channel site2 (unknown origin) at 10 uM relative to control
[13] = biological target: hERG (KCNH2) (Homo sapiens, UniProt Q12809); assay: Inhibition of human ERG in HEK293 cells at 10 uM relative to control; type: cell-based; conditions: HEK293 cells that express hERG
[14] = organism: Homo sapiens; assay: Inhibition of Calcium-activated potassium channel channel (unknown origin); conditions: concentration not given here
[15] = organism: Homo sapiens; assay: Inhibition of GABA receptor chloride/TBOB site (unknown origin) at 10 uM relative to control
[16] = biological target: L-type calcium channel (Homo sapiens, UniProt O60840+Q01668+Q13698+Q13936); assay: Inhibition of L-type calcium channel (unknown origin) at 10 uM relative to control; type: protein assay
[17] = biological target: Sigma intracellular receptor 2 (Homo sapiens) (UniProt Q5BJF2); assay: Inhibition of sigma 2 receptor (unknown origin) at 10 uM relative to control
[18] = biological target: Sigma non-opioid intracellular receptor 1 (Homo sapiens) (UniProt Q99720); assay: Inhibition of sigma 1 receptor (unknown origin) at 10 uM relative to control
[19] = biological target: 5-hydroxytryptamine receptor 7 (Homo sapiens) (UniProt P34969); assay: Inhibition of human 5HT-7 receptor at 10 uM relative to control
[20] = organism: Homo sapiens; assay: Inhibition of human 5HT-6 receptor at 10 uM relative to control
[21] = biological target: 5-hydroxytryptamine receptor 3A (Homo sapiens) (UniProt P46098); assay: Inhibition of 5HT-3 (unknown origin) receptor at 10 uM relative to control
[22] = biological target: T2, 5-hydroxytryptamine receptor 2A (Homo sapiens, UniProt P28223); assay: Inhibition of human 5HT-2A receptor at 10 uM relative to control
[23] = biological target: T2, 5-hydroxytryptamine receptor 2A; assay: Inhibition of human 5HT-2A receptor expressed in CHO-K1 cells at 10 uM relative to control; type: cell-based
[24] = organism: Homo sapiens; assay: Inhibition of human delta 2-type opioid receptor at 10 uM relative to control
[25] = biological target: Muscarinic acetylcholine receptor M4 (Homo sapiens) (UniProt P08173); assay: Inhibition of human muscarinic M4 receptor expressed in CHO-K1 cells at 10 uM relative to control; type: cell-based
[26] = biological target: Muscarinic acetylcholine receptor M2 (Homo sapiens) (UniProt P08172); assay: Inhibition of human muscarinic M2 receptor expressed in CHO-K1 cells at 10 uM relative to control; type: cell-based
[27] = biological target: Histamine H2 receptor (Homo sapiens) (UniProt P25021); assay: Inhibition of human histamine H2 receptor expressed in CHO-K1 cells at 10 uM relative to control; type: cell-based
[28] = organism: Homo sapiens; assay: Inhibition of Glutamate receptor ionotropic NMDA glycine,strychnine-sensitive site (unknown origin) at 10 uM relative to control
[29] = organism: Homo sapiens; assay: Inhibition of Glutamate receptor ionotropic NMDA phencyclidine site (unknown origin) at 10 uM relative to control
[30] = organism: Homo sapiens; assay: Inhibition of Glutamate receptor ionotropic kainate site (unknown origin) at 10 uM relative to control
[31] = organism: Homo sapiens; assay: Inhibition of Glutamate receptor ionotropic AMPA site (unknown origin) at 10 uM relative to control
[32] = organism: Homo sapiens; assay: Inhibition of GABA-A agonist site (unknown origin) at 10 uM relative to control
[33] = biological target: Gamma-aminobutyric acid receptor subunit alpha-1 (Homo sapiens) (UniProt P14867); assay: Inhibition of GABA-A alpha1 BDZ site (unknown origin) at 10 uM relative to control
[34] = biological target: D(4) dopamine receptor (Homo sapiens) (UniProt P21917); assay: Inhibition of human dopamine D4.4 receptor expressed in CHO-K1 cells at 10 uM relative to control; type: cell-based
[35] = biological target: D(2) dopamine receptor (Homo sapiens) (UniProt P14416); assay: Inhibition of human dopamine D2S receptor expressed in CHO-K1 cells at 10 uM relative to control; type: cell-based
[36] = biological target: D(3) dopamine receptor (Homo sapiens, UniProt P35462); assay: Inhibition of human dopamine D3 receptor expressed in CHO-K1 cells at 10 uM relative to control; type: cell-based
[37] = biological target: D(1A) dopamine receptor (Homo sapiens) (UniProt P21728); assay: Inhibition of human dopamine D1 receptor at 10 uM relative to control
[38] = biological target: Alpha-2C adrenergic receptor (Homo sapiens) (UniProt P18825); assay: Inhibition of human adrenergic receptor alpha2C expressed in CHO-K1 cells at 10 uM relative to control; type: cell-based
[39] = biological target: Alpha-2B adrenergic receptor (Homo sapiens) (UniProt P18089); assay: Inhibition of human adrenergic receptor alpha2B expressed in CHO-K1 cells at 10 uM relative to control; type: cell-based
[40] = organism: Homo sapiens; assay: Inhibition of human adenosine transporter at 10 uM relative to control
[41] = biological target: Alpha-1A adrenergic receptor (Homo sapiens) (UniProt P35348); assay: Inhibition of human adrenergic receptor alpha1A expressed in CHO-K1 cells at 10 uM relative to control; type: cell-based
[42] = biological target: Adenosine receptor A2a (Homo sapiens) (UniProt P29274); assay: Inhibition of human adenosine receptor A2A expressed in HEK293 cells at 10 uM relative to control; type: cell-based
[43] = biological target: T1, Neuronal acetylcholine receptor; alpha4/beta2
Description: Agonist activity at alpha4beta2 nAChR in rat frontal cortex membrane

T2 sequence (P28223 whole entry): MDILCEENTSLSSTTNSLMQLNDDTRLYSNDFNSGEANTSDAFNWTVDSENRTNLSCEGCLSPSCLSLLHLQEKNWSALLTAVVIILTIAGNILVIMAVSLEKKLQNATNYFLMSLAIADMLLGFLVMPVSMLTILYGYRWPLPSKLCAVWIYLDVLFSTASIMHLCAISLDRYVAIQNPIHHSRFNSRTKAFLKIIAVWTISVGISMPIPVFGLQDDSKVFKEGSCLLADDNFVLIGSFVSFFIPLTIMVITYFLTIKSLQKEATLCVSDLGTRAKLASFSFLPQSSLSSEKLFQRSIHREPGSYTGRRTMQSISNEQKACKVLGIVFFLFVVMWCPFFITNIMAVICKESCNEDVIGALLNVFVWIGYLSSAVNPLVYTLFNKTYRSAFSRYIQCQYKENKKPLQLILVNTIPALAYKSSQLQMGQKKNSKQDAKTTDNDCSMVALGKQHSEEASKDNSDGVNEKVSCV
T1 sequence (P09483 whole entry): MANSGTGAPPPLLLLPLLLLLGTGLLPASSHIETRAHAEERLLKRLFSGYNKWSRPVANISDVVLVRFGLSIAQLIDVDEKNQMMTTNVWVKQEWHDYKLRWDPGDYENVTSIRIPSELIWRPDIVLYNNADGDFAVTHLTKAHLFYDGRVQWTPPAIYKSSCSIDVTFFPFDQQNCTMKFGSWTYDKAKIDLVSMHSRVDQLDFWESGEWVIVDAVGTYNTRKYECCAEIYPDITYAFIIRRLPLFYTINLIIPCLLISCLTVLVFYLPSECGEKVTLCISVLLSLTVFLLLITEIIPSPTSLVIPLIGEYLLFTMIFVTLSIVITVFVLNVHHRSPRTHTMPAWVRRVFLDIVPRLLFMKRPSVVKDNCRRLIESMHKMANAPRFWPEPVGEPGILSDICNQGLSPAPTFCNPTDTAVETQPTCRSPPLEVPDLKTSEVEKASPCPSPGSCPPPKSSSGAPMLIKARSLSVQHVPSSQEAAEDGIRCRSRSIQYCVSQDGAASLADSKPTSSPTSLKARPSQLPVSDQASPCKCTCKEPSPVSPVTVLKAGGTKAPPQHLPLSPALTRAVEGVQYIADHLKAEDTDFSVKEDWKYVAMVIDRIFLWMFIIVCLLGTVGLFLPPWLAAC
T1 sequence (P12390 whole entry): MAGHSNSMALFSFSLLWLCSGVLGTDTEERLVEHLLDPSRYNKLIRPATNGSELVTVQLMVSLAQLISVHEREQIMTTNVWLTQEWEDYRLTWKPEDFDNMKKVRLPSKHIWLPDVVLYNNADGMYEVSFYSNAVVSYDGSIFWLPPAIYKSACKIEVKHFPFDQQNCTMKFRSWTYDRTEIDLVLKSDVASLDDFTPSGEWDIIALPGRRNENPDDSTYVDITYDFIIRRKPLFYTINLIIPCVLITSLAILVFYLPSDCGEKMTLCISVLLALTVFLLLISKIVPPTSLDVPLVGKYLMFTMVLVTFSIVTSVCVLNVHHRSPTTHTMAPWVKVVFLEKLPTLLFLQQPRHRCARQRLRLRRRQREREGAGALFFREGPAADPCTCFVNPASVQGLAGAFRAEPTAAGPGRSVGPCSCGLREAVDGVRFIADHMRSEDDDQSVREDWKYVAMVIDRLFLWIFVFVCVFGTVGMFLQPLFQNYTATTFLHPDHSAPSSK
Sequence of Alpha-1A adrenergic receptor (Homo sapiens) (P35348 whole entry): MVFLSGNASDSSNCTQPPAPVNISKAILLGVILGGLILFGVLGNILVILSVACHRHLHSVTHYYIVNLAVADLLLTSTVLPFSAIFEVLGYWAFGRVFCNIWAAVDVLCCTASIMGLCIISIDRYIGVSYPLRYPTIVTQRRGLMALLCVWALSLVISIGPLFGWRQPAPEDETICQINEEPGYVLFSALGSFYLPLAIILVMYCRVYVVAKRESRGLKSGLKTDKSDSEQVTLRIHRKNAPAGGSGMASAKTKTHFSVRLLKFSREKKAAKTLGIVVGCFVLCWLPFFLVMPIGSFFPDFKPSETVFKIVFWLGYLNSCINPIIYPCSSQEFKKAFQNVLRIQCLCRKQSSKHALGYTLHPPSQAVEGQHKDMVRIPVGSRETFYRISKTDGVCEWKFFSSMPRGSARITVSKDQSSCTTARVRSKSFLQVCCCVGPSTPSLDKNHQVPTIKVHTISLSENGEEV
Sequence of Cysteinyl leukotriene receptor 1 (Homo sapiens) (Q9Y271 whole entry): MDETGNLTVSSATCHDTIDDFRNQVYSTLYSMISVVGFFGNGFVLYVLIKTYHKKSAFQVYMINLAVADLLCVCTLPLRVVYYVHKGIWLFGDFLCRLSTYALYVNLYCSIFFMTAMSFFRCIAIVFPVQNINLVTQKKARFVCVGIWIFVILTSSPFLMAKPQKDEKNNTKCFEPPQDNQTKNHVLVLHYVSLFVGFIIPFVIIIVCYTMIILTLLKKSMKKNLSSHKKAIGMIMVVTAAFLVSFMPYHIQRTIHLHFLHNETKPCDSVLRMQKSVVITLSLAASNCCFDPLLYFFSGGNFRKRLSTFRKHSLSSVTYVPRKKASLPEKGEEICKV
Sequence of Thromboxane A2 receptor (Homo sapiens) (P21731 whole entry): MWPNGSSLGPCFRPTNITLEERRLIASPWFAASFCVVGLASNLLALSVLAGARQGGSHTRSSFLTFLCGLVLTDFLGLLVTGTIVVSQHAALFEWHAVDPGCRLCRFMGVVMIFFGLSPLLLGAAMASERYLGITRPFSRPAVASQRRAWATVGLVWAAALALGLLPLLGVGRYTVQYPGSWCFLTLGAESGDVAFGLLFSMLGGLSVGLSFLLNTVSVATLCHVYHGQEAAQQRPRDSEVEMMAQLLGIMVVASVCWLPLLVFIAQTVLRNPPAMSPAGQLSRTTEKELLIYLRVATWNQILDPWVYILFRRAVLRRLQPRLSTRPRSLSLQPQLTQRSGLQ
Sequence of Substance-P receptor (Homo sapiens) (P25103 whole entry): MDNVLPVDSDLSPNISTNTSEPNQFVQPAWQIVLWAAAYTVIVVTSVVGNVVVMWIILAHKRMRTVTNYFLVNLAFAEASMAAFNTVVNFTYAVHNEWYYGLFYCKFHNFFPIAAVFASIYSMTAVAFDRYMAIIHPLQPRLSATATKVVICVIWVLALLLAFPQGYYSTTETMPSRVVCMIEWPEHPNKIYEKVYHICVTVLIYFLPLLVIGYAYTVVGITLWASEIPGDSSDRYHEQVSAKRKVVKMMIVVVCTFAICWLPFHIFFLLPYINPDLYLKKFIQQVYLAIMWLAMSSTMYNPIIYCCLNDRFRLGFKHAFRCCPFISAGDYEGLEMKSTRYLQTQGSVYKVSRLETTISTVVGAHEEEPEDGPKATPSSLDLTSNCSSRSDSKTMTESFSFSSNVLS
Sequence of Alpha-2B adrenergic receptor (Homo sapiens) (P18089 whole entry): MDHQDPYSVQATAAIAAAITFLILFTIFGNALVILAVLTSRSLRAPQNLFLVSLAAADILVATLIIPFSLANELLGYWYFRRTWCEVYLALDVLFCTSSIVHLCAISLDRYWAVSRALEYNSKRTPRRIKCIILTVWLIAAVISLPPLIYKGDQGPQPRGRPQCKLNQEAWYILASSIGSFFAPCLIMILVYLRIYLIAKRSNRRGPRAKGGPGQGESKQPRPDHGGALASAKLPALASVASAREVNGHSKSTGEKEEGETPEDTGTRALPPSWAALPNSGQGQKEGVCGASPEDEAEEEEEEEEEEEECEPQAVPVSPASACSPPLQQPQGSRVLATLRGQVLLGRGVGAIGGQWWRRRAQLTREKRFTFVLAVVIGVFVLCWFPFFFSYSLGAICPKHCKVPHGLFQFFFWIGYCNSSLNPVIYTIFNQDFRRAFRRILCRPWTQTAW
Sequence of Muscarinic acetylcholine receptor M4 (Homo sapiens) (P08173 whole entry): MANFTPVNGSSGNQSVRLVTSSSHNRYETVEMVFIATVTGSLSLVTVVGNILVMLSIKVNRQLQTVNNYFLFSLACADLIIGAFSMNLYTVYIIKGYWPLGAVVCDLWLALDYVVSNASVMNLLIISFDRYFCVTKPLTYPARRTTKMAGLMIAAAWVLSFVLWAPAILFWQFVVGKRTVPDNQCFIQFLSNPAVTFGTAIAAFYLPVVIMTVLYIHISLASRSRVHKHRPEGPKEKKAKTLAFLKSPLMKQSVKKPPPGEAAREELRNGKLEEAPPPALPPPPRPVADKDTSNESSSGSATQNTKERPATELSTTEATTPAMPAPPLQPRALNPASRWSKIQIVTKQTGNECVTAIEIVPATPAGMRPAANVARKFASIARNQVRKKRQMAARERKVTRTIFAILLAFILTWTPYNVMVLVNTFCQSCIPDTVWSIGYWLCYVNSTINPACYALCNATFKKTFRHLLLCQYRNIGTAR
Sequence of Sigma intracellular receptor 2 (Homo sapiens) (Q5BJF2 whole entry): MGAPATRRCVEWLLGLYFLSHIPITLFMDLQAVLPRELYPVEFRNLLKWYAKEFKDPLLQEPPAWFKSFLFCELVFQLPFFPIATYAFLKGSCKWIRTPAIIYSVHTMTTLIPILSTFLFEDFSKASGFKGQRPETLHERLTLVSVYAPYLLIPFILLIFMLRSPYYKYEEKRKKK

## CN1C(=O)CC[C@H]1c1cccnc1 [COTININE]
[1]
  Ki: 3 µM
[2]
  half-life: 19 h
[3]
  Activity: >=20%
[4]
  inhibition: < 50%
[5]
  inhibition: < 50%
[6]
  inhibition: < 50%
[7]
  inhibition: < 50%
[8]
  inhibition: < 50%
[9]
  inhibition: < 50%
[10]
  inhibition: < 50%
[11]
  inhibition: < 50%
[12]
  inhibition: < 50%
[13]
  inhibition at 10 µM: < 50%
[14]
  inhibition: < 50%
[15]
  inhibition: < 50%
[16]
  inhibition at 10 µM: < 50%
[17]
  inhibition: < 50%
[18]
  inhibition: < 50%
[19]
  inhibition: < 50%
[20]
  inhibition: < 50%
[21]
  inhibition: < 50%
[22]
  inhibition: < 50%
[23]
  inhibition: < 50%
[24]
  inhibition: < 50%
[25]
  inhibition: < 50%
[26]
  inhibition: < 50%
[27]
  inhibition: < 50%
[28]
  inhibition: < 50%
[29]
  inhibition: < 50%
[30]
  inhibition: < 50%
[31]
  inhibition: < 50%
[32]
  inhibition: < 50%
[33]
  inhibition: < 50%
[34]
  inhibition: < 50%
[35]
  inhibition: < 50%
[36]
  inhibition: < 50%
[37]
  inhibition: < 50%
[38]
  inhibition: < 50%
[39]
  inhibition: < 50%
[40]
  inhibition: < 50%
[41]
  inhibition: < 50%
[42]
  inhibition: < 50%
[43]
  EC50: 21 µM

Reference: ChEMBL document CHEMBL4673260, “Pyridine alkaloids with activity in the central nervous system” (Bioorg Med Chem, 2020)
